Measurements published in patent US12527869B2, “Stable microspheres, method off abrication and use thereof” (B. G. NEGEV TECHNOLOGIES AND APPLICATIONS LTD., AT …, priority 2018, dated 2026).
Values after ≈ are worked out from the molar mass of the structure shown.

Assays:
[1] = cited from earlier work
[2] = cited from earlier work; for Ostwald coefficient (×10^6): gas solubility
[3] = In vitro cavitation measurement by passive cavitation detection (PCD); settings: C3F8; 499 KPa; about 6×10^7 MBs or 350 μl free gas
Description: Lyophilized microbubbles prepared as described in Example 1 herein were weighed and inserted into a headspace vial, and the vial was sealed by a screw cap with 1.3 mm silicone septum. Empty 50 ml syringe, 10 ml syringe filled with the desired gas and a 27 G needle, were connected to a 3 ways stopcock. The air inside the vail was drawn using the 50 ml syringe to form a vacuum, then the desired gas in the 10 ml syringe was injected into the vial. The MBs were dispersed with the desired volume (3 ml-7 ml) of degassed water, which was injected with an additional syringe and needle (23 G) through the septum cap, to prevent gas leakage. […]
Acoustic absorbing material (E in FIG. 8) was located at the top of the chamber to prevent ultrasound reflection, and a receiver (hydrophone manufactured by InSightec) was placed at an angle of […] to the direction of wave propagation (F in FIG. 8). […] These variations were recorded by the same digital pico-oscilloscope, and the data was analyzed using MATLAB software. […]
Between measurements, it was necessary to degas the water in the system to ensure that the measured cavitation was caused by the activity of microbubbles examined in the specific experiment, and not as a result of existing gas bubbles in water, or microbubbles from a previous experiment, which remained in the system. […]
The data were analyzed using MATLAB software. […]

SMILES | water solubility [1] [mg/mL] | Ostwald coefficient (×10^6) [2] | Diffusivity coefficient in water [2] | cavitation dose (CD) by inner core structure, compared with hollow single-core microbubbles [3]
ClCCl [DCM, dichloromethane] | 20 (≈ 235 mM) |  |  | 
FS(F)(F)(F)(F)F [SF6, sulfur hexafluoride] |  | 5400 ×10^6 | 12 m^2s^−1 (×10^10) | 
FC(F)(F)C(F)(F)C(F)(F)F [Synthesis C3F8, perfluoropropane] |  | 520 ×10^6 | 7.45 m^2s^−1 (×10^10) | very low
FC(F)(F)C(F)(F)C(F)(F)C(F)(F)F [Synthesis C4F10, perfluorobutane] |  | 202 ×10^6 | 6.9 m^2s^−1 (×10^10) | 
CCOC(C)=O [ethyl acetate] | 90 |  |  | 
